Assay results reported in US7425640B2, “Substituted 5-carboxyamide pyrazoles and [1,2,4]triazoles as antiviral agents” (priority 2004, dated 2008).
Like-named read-outs stand apart in the source and are kept apart here.

Biological target: HCV RNA-dependent RNA polymerase NS5B (Δ21) (Hepatitis C virus genotype 1b, UniProt P26663)
Test: Assay for HCV RNA-dependent RNA polymerase activity (SPA, [3H]-GTP incorporation)
Assay type: biochemical
Details: 50 nM NS5B (Δ21)
Outline: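 NS5B (Δ21), 50 nM, was incubated 3 h at room temperature with biotinylated oligoG12/polyC template, 5 μM GTP plus [3H]-GTP, in HEPES pH 7.3 with MgCl2 and NaCl. [3H]-GTP incorporation was read by streptavidin SPA. IC50 came from single experiments across 11 two-fold dilutions (0.05–50 μM).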

[1] = Δ21 Activity (IC50 μM), numeric values
[2] = Δ21 Activity (IC50 μM), class symbols
[3] = read-out: Δ21 Activity (IC50 μM), class symbols

Sequence of HCV RNA-dependent RNA polymerase NS5B (Δ21) (P26663 2420-2989, stated change not applied): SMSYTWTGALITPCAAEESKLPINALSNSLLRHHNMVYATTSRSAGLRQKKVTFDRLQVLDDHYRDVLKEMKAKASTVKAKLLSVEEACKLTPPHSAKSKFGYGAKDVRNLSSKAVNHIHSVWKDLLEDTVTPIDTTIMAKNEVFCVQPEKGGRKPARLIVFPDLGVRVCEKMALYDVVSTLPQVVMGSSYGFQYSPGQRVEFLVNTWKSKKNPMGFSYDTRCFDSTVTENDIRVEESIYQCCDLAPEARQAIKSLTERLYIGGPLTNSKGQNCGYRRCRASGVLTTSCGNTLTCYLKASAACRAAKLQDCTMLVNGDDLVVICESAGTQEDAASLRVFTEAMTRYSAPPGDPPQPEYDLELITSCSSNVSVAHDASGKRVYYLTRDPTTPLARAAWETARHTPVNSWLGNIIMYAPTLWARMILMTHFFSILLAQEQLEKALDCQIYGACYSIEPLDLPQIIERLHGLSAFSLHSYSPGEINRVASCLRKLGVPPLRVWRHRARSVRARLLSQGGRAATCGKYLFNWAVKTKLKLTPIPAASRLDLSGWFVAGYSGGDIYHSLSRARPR

SMILES	IC50 [2] [µM]	IC50 [3] [µM]	further results
Cc1ccc(OCc2ccsc2)c(NC(=O)c2cc(C(=O)O)nn2CC(=O)N[C@H]2CCCC[C@@H]2OCc2ccccc2)c1 [drawing 247]			IC50 [1]: 0.032 µM
O=C(Cn1nc(NS(=O)(=O)c2ccc(Cl)cc2)cc1C(=O)N[C@H]1CCCC[C@@H]1OCc1ccccc1)N[C@H]1CCCC[C@@H]1OCc1ccccc1 [Compound 11]	< 0.05		
O=C(Cn1nc(NS(=O)(=O)C(F)(F)F)cc1C(=O)N[C@H]1CCCC[C@@H]1OCc1ccccc1)N[C@H]1CCCC[C@@H]1OCc1ccccc1 [Compound 26]	0.05 to 0.1		
O=C(Cn1nc(C(=O)O)cc1C(=O)N[C@@H]1CCCC[C@@H]1OCc1ccccc1)N[C@H]1CCCC[C@H]1OCc1ccccc1 [Compound 132]		0.1 to 1	
O=C(Cn1nc(C(=O)NC2CCc3ccccc32)cc1C(=O)N[C@H]1CCCC[C@@H]1OCc1ccccc1)N[C@H]1CCCC[C@@H]1OCc1ccccc1 (stereo partly drawn) [Compound 107]		0.1 to 1	
Cc1cc(Oc2ccccc2NC(=O)Cn2nc(C(=O)O)cc2C(=O)N[C@H]2CCCC[C@@H]2OCc2ccccc2)ccc1Cl [Compound 23]	0.05 to 0.1		
COc1ccc(OC)c(S(=O)(=O)Nc2cc(C(=O)N[C@H]3CCCC[C@@H]3OCc3ccccc3)n(CC(=O)N[C@H]3CCCC[C@@H]3OCc3ccccc3)n2)c1 [Compound 97]		0.1 to 1	
COc1ccc(S(=O)(=O)Nc2cc(C(=O)N[C@H]3CCCC[C@@H]3OCc3ccccc3)n(CC(=O)N[C@H]3CCCC[C@@H]3OCc3ccccc3)n2)cc1 [Compound 41]	0.05 to 0.1		
O=C(Cn1nc(C(=O)NCc2cccc(Cl)c2)cc1C(=O)N[C@H]1CCCC[C@@H]1OCc1ccccc1)N[C@H]1CCCC[C@@H]1OCc1ccccc1 [Compound 70]		0.1 to 1	
Cc1ccc(OCc2ccccc2)c(NC(=O)c2nc(C(=O)O)nn2CC(=O)N[C@H]2CCCC[C@@H]2OCc2ccccc2)c1 [Compound 24]	0.05 to 0.1		
CC(C)NC(=O)Nc1cc(C(=O)N[C@H]2CCCC[C@@H]2OCc2ccccc2)n(CC(=O)N[C@H]2CCCC[C@@H]2OCc2ccccc2)n1 [Compound 167]		0.1 to 1	
CCOC(=O)c1cc(C(=O)N[C@H]2CCCC[C@@H]2OCc2ccccc2)n(CC(=O)Nc2ncccc2Oc2ccccc2)n1 [Compound 200]	> 1		
CN(C)C(=O)c1cc(C(=O)N[C@H]2CCCC[C@@H]2OCc2ccccc2)n(CC(=O)NC2CCCC[C@@H]2OCc2ccccc2)n1 (stereo partly drawn) [Compound 197]	> 1		
CCCCOCCCNC(=O)c1cc(C(=O)N[C@H]2CCCC[C@@H]2OCc2ccccc2)n(CC(=O)N[C@H]2CCCC[C@@H]2OCc2ccccc2)n1 [Compound 93]		0.1 to 1	
O=C(Cn1nc(NS(=O)(=O)c2ccc(Br)cc2)cc1C(=O)N[C@H]1CCCC[C@@H]1OCc1ccccc1)N[C@H]1CCCC[C@@H]1OCc1ccccc1 [drawing 252]			IC50 [1]: 0.041 µM
C=CCOc1ccccc1NC(=O)Cn1nc(C(=O)O)cc1C(=O)N[C@H]1CCCC[C@@H]1OCc1ccccc1 [Compound 171]	> 1		
O=C(Cn1nc(C(=O)N2c3ccccc3CCc3ccccc32)cc1C(=O)N[C@H]1CCCC[C@@H]1OCc1ccccc1)N[C@H]1CCCC[C@@H]1OCc1ccccc1 [Compound 119]		0.1 to 1	
O=C(Cn1nc(NS(=O)(=O)c2cc(Cl)cc(Cl)c2O)cc1C(=O)N[C@H]1CCCC[C@@H]1OCc1ccccc1)N[C@H]1CCCC[C@@H]1OCc1ccccc1 [Compound 108]		0.1 to 1	
CC(C)(C)OC(=O)CNC(=O)c1cc(C(=O)N[C@H]2CCCC[C@@H]2OCc2ccccc2)n(CC(=O)N[C@H]2CCCC[C@@H]2OCc2ccccc2)n1 [Compound 105]		0.1 to 1	
O=C(Cn1nc(C(=O)Nc2nnn[nH]2)nc1C(=O)N[C@H]1CCCC[C@@H]1OCc1ccccc1)N[C@H]1CCCC[C@@H]1OCc1ccccc1 [Compound 115]		0.1 to 1	
O=C(Cn1nc(NC(=O)Nc2ccccc2)cc1C(=O)N[C@H]1CCCC[C@@H]1OCc1ccccc1)N[C@H]1CCCC[C@@H]1OCc1ccccc1 [Compound 102]		0.1 to 1	
CCOC(=O)c1cc(C(=O)N[C@H]2CCCC[C@@H]2OCc2ccccc2)n(CS(=O)(=O)N[C@H]2CCCC[C@@H]2OCc2ccccc2)n1 [Compound 152]		0.1 to 1	
O=C(Cn1nc(C(=O)O)cc1C(=O)Nc1cc(Cl)ccc1OCC1CCCCC1)N[C@H]1CCCC[C@@H]1OCc1ccccc1 [drawing 242]			IC50 [1]: 0.02 µM
CC(C)NC(=O)c1cc(C(=O)N[C@H]2CCCC[C@@H]2OCc2ccccc2)n(CC(=O)N[C@H]2CCCC[C@@H]2OCc2ccccc2)n1 [Compound 163]	> 1		
O=C(Cn1nc(NS(=O)(=O)c2cccc3cccnc23)cc1C(=O)N[C@H]1CCCC[C@@H]1OCc1ccccc1)N[C@H]1CCCC[C@@H]1OCc1ccccc1 [Compound 144]		0.1 to 1	
CCOC(=O)c1cc(C(=O)N[C@@H]2CCCC[C@@H]2OCc2ccccc2)n(CC(=O)N[C@H]2CCCC[C@H]2OCc2ccccc2)n1 [Compound 139]		0.1 to 1	
O=C(Cn1nc(NS(=O)(=O)c2cccc(Cl)c2)cc1C(=O)N[C@H]1CCCC[C@@H]1OCc1ccccc1)N[C@H]1CCCC[C@@H]1OCc1ccccc1 [Compound 80]		0.1 to 1	

SMILES	IC50 [2] [µM]	IC50 [3] [µM]	further results
CCCONC(=O)c1cc(C(=O)N[C@H]2CCCC[C@@H]2OCc2ccccc2)n(CC(=O)N[C@H]2CCCC[C@@H]2OCc2ccccc2)n1 [Compound 164]		0.1 to 1	
Cc1ccc(OCc2ccccc2)c(NC(=O)c2cc(NS(=O)(=O)c3ccc(Cl)cc3)nn2CC(=O)N[C@H]2CCCC[C@@H]2OCc2ccccc2)c1 [Compound 44]	0.05 to 0.1		
CC1CCC(OCc2ccccc2)C(NC(=O)c2cc(C(=O)O)nn2CS(=O)(=O)N[C@H]2CCCC[C@@H]2OCc2ccccc2)C1 (stereo partly drawn) [Compound 89]		0.1 to 1	
N#CNC(=O)c1cc(C(=O)Nc2ccccc2OCc2ccccc2)n(CC(=O)N[C@H]2CCCC[C@@H]2OCc2ccccc2)n1 [drawing 245]			IC50 [1]: 0.024 µM
C[C@@H](NC(=O)c1cc(C(=O)N[C@H]2CCCC[C@@H]2OCc2ccccc2)n(CC(=O)N[C@H]2CCCC[C@@H]2OCc2ccccc2)n1)c1cccc2ccccc12 [Compound 7]	< 0.05		
O=C(Cn1nc(C(=O)O)cc1C(=O)Nc1cc(Br)ccc1OCC1CCCCC1)N[C@H]1CCCC[C@@H]1OCc1ccccc1 [drawing 251]			IC50 [1]: 0.037 µM
Cc1ccc(OCC(C)(C)C)c(NC(=O)c2cc(C(=O)O)nn2CC(=O)N[C@H]2CCCC[C@@H]2OCc2ccccc2)c1 [Compound 114]		0.1 to 1	
CCOC(=O)c1cc(C(=O)N[C@H]2CCCC[C@@H]2OCc2ccccc2)n(C(C)C(=O)N[C@H]2CCCC[C@@H]2OCc2ccccc2)n1 (stereo partly drawn) [Compound 186]	> 1		
O=C(Cn1nc(NS(=O)(=O)c2ccc(Br)c(Br)c2)cc1C(=O)N[C@H]1CCCC[C@@H]1OCc1ccccc1)N[C@H]1CCCC[C@@H]1OCc1ccccc1 [Compound 58]		0.1 to 1	
Cc1ccc(OCC2CC2)c(NC(=O)Cn2nc(C(=O)O)cc2C(=O)N[C@H]2CCCC[C@@H]2OCc2ccccc2)c1 [Compound 56]		0.1 to 1	
O=C(Cn1nc(NS(=O)(=O)c2ccccc2Br)cc1C(=O)N[C@H]1CCCC[C@@H]1OCc1ccccc1)N[C@H]1CCCC[C@@H]1OCc1ccccc1 [Compound 32]	0.05 to 0.1		
COc1cccc(NC(=O)c2cc(C(=O)N[C@H]3CCCC[C@@H]3OCc3ccccc3)n(CC(=O)N[C@H]3CCCC[C@@H]3OCc3ccccc3)n2)c1 [drawing 255]			IC50 [1]: 0.045 µM
O=C(Cn1nc(C(=O)O)cc1C(=O)NC12CC3CC(CC(C3)C1)C2)NC1CCCC[C@@H]1OCc1ccccc1 (stereo partly drawn) [Compound 207]	> 1		
N#CNC(=O)c1cc(C(=O)Nc2ccccc2OCc2ccccc2)n(CC(=O)N[C@H]2CCCC[C@@H]2OCc2ccccc2)n1 [Compound 6]	< 0.05		
O=C(Cn1nc(C(=O)NCc2ccc(Cl)cc2Cl)cc1C(=O)N[C@H]1CCCC[C@@H]1OCc1ccccc1)N[C@H]1CCCC[C@@H]1OCc1ccccc1 [Compound 148]		0.1 to 1	
COc1ccccc1NC(=O)c1cc(C(=O)N[C@H]2CCCC[C@@H]2OCc2ccccc2)n(CC(=O)N[C@H]2CCCC[C@@H]2OCc2ccccc2)n1 [Compound 73]		0.1 to 1	
O=C(O)c1cc(C(=O)N[C@H]2CCCC[C@@H]2OCc2ccccc2)n(CC(=O)N2CCC[C@@H]2COCc2ccccc2)n1 [Compound 198]	> 1		
COC(CNC(=O)c1cc(C(=O)N[C@H]2CCCC[C@@H]2OCc2ccccc2)n(CC(=O)N[C@H]2CCCC[C@@H]2OCc2ccccc2)n1)OC [Compound 146]		0.1 to 1	
O=C(Cn1nc(C(=O)O)nc1C(=O)Nc1ccccc1OCc1ccccc1)N[C@H]1CCCC[C@@H]1OCc1ccccc1 [Compound 62]		0.1 to 1	
CN(C)c1cccc2c(S(=O)(=O)Nc3cc(C(=O)N[C@H]4CCCC[C@@H]4OCc4ccccc4)n(CC(=O)N[C@H]4CCCC[C@@H]4OCc4ccccc4)n3)cccc12 [Compound 113]		0.1 to 1	
Cc1ccc(OCc2ccsc2)c(NC(=O)c2cc(C(=O)O)nn2CC(=O)N[C@H]2CCCC[C@@H]2OCc2ccccc2)c1 [Compound 8]	< 0.05		
O=C(Cn1nc(O)cc1C(=O)N[C@H]1CCCC[C@@H]1OCc1ccccc1)N[C@H]1CCCC[C@@H]1OCc1ccccc1 [Compound 69]		0.1 to 1	
Cc1ccc(S(=O)(=O)Nc2cc(C(=O)N[C@H]3CCCC[C@@H]3OCc3ccccc3)n(CC(=O)N[C@H]3CCCC[C@@H]3OCc3ccccc3)n2)cc1 [Compound 106]		0.1 to 1	
O=C(Cn1nc(C(=O)NC2CC2)cc1C(=O)N[C@H]1CCCC[C@@H]1OCc1ccccc1)N[C@H]1CCCC[C@@H]1OCc1ccccc1 [Compound 122]		0.1 to 1	
O=C(Cn1nc(NS(=O)(=O)c2ccc(Cl)s2)cc1C(=O)N[C@H]1CCCC[C@@H]1OCc1ccccc1)N[C@H]1CCCC[C@@H]1OCc1ccccc1 [Compound 38]	0.05 to 0.1		
CC(C)(C)OC(=O)c1cc(C(=O)N[C@H]2CCCC[C@@H]2OCc2ccccc2)n(CC(=O)N[C@H]2CCCC[C@@H]2OCc2ccccc2)n1 [Compound 65]		0.1 to 1	
Cc1cc(C(=O)N[C@H]2CCCC[C@@H]2OCc2ccccc2)n(CC(=O)N[C@H]2CCCC[C@@H]2OCc2ccccc2)n1 [Compound 175]	> 1		
